Earlier results, collected in patent US20230346789A1, “METHODS OF TREATING ENHANCING BRAIN TUMORS USING COMBINATION THERAPY” (MSD International GmbH, priority 2022, published 2023).
Like-named read-outs stand apart in the source and are kept apart here.

Experiments:
[1] = test system: Recurrent or Progressive Glioma; settings: monotherapy

Compound | clinical efficacy ([1]; patients with non-enhancing gliomas) | clinical efficacy ([1]; patients with recurrent enhancing gliomas) | preclinical safety profile
C[C@@H](Nc1nc(N[C@H](C)C(F)(F)F)nc(-c2cccc(Cl)n2)n1)C(F)(F)F [vorasidenib, 6-(6-chloropyridin-2-yl)-N^2,N^4-bis((R)-1,1,1-trifluoropropan-2-yl)-1,3,5-triazine-2,4-diamine] | clinical activity and prolonged disease control | only limited efficacy | –
pembrolizumab: humanized immunoglobulin G4 (IgG4) monoclonal antibody blocking the programmed death receptor-1 (PD1) | – | – | acceptable
